Measurements as given in ChEMBL document CHEMBL1201862, “PubChem BioAssay data set” (2004).
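Dose response: 5 concentrations. Exposure: 48 h. Format: 96-well plates. Endpoint: linear interpolation; highest concentration if not reached. The concentration for 50% growth inhibition is given as GI50.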 Active and inactive are the calls of the source. No stated cut-off is given here; in the data, active = GI50 up to about 1.1 µM and inactive = higher.

Tests used:
Experiment in all cases: NCI-60 cell line screen, 48 h
CAKI-1 = test system: CAKI-1
A549 = test system: A549
MOLT-4 = test system: MOLT-4
NCI-H522 = test system: NCI-H522
SNB-75 = test system: SNB-75
OVCAR-4 = test system: OVCAR-4
BT-549 = test system: BT-549
SF-295 = test system: SF-295
A498 = test system: A498
LOX IMVI = test system: LOX IMVI
MCF7 = test system: MCF7
SK-OV-3 = test system: SK-OV-3
K562 = test system: K562
HOP-92 = test system: HOP-92
HCC 2998 = test system: HCC 2998
MDA-MB-435 = test system: MDA-MB-435
RPMI-8226 = test system: RPMI-8226
HOP-62 = test system: HOP-62
SR = test system: SR
HCT-116 = test system: HCT-116
HT-29 = test system: HT-29
NCI/ADR-RES = test system: NCI/ADR-RES
DU-145 = test system: DU-145
NCI-H23 = test system: NCI-H23
OVCAR-5 = test system: OVCAR-5
786-0 = test system: 786-0
UO-31 = test system: UO-31
SF-539 = test system: SF-539
MDA-N = test system: MDA-N
MDA-MB-231 = test system: MDA-MB-231
UACC-257 = test system: UACC-257
OVCAR-3 = test system: OVCAR-3
SW-620 = test system: SW-620
TK-10 = test system: TK-10
OVCAR-8 = test system: OVCAR-8
SF-268 = test system: SF-268
NCI-H226 = test system: NCI-H226
CCRF-CEM = test system: CCRF-CEM
COLO 205 = test system: COLO 205
U-251 = test system: U-251
KM12 = test system: KM12
T47D = test system: T47D
RXF 393 = test system: RXF 393
UACC-62 = test system: UACC-62
SK-MEL-28 = test system: SK-MEL-28
NCI-H460 = test system: NCI-H460
ACHN = test system: ACHN
SK-MEL-5 = test system: SK-MEL-5
SK-MEL-2 = test system: SK-MEL-2
EKVX = test system: EKVX
IGROV-1 = test system: IGROV-1
Hs-578T = test system: Hs-578T
HCT-15 = test system: HCT-15
PC-3 = test system: PC-3
SN12C = test system: SN12C
SNB-19 = test system: SNB-19

CCOC(=O)/C=C(/C(=O)OCC)n1ccc(=O)n(Cc2cn(COCCOC(C)=O)nn2)c1=O was tested, and the GI50 (CAKI-1) was 4.74 µM (inactive), the GI50 (A549) was > 100 µM (inactive) and the GI50 (MOLT-4) was 17.3 µM (inactive). The GI50 (NCI-H522) was 4.54 µM (inactive), the GI50 (SNB-75) was 33 µM (inactive) and the GI50 (OVCAR-4) was 22.9 µM (inactive). For the same compound, the GI50 (BT-549) was 16.4 µM (inactive), the GI50 (SF-295) was > 100 µM (inactive) and the GI50 (A498) was 20.5 µM (inactive). The GI50 (LOX IMVI) was 20.9 µM (inactive), the GI50 (MCF7) was 15 µM (inactive) and the GI50 (SK-OV-3) was > 100 µM (inactive). The GI50 (K562) was 19.1 µM (inactive), the GI50 (HOP-92) was 1.53 µM (inactive) and the GI50 (HCC 2998) was 17.8 µM (inactive). The GI50 (MDA-MB-435) was 17.9 µM (inactive), the GI50 (RPMI-8226) was 19.5 µM (inactive) and the GI50 (HOP-62) was > 100 µM (inactive). The GI50 (SR) was 19.4 µM (inactive), the GI50 (HCT-116) was 31.6 µM (inactive) and the GI50 (HT-29) was 18.1 µM (inactive). The GI50 (NCI/ADR-RES) was 20.3 µM (inactive), the GI50 (DU-145) was 40.2 µM (inactive) and the GI50 (NCI-H23) was 20.7 µM (inactive). The GI50 (OVCAR-5) was 20.1 µM (inactive), the GI50 (786-0) was 21.7 µM (inactive) and the GI50 (UO-31) was 18 µM (inactive). For the same compound, the GI50 (SF-539) was 20.3 µM (inactive), the GI50 (MDA-N) was 50 µM (inactive) and the GI50 (MDA-MB-231) was 28.8 µM (inactive). For the same compound, the GI50 (UACC-257) was 19.3 µM (inactive), the GI50 (OVCAR-3) was 17.8 µM (inactive) and the GI50 (SW-620) was 7.05 µM (inactive). The GI50 (TK-10) was 16.8 µM (inactive), the GI50 (OVCAR-8) was 16.4 µM (inactive) and the GI50 (SF-268) was 18.2 µM (inactive). For the same compound, the GI50 (NCI-H226) was 33.7 µM (inactive), the GI50 (CCRF-CEM) was 2.14 µM (inactive) and the GI50 (COLO 205) was 4.91 µM (inactive). For the same compound, the GI50 (U-251) was 28 µM (inactive), the GI50 (KM12) was 15.5 µM (inactive) and the GI50 (T47D) was 32.1 µM (inactive). The GI50 (RXF 393) was 25.6 µM (inactive), the GI50 (UACC-62) was 18.3 µM (inactive) and the GI50 (SK-MEL-28) was 16.3 µM (inactive). For the same compound, the GI50 (NCI-H460) was 15.6 µM (inactive), the GI50 (ACHN) was 14.8 µM (inactive) and the GI50 (SK-MEL-5) was 25.8 µM (inactive). The GI50 (SK-MEL-2) was 25.2 µM (inactive), the GI50 (EKVX) was 16.9 µM (inactive) and the GI50 (IGROV-1) was 18 µM (inactive). The GI50 (Hs-578T) was 26.4 µM (inactive), the GI50 (HCT-15) was 20.3 µM and the GI50 (PC-3) was 35.4 µM (inactive). For the same compound, the GI50 (SN12C) was 34.8 µM (inactive) and the GI50 (SNB-19) was 70.5 µM (inactive).
